# Earlier results, collected in patent US20050277626A1, “Methods and compositions for treatment of nicotine dependence and dementias” (priority 2004, published 2005).
# Key:
# [1] = schizophrenic patients
# [2] = 400 mg per day
compound,measurement,setting,value
COc1ccc2c3c1O[C@H]1C[C@@H](O)C=C[C@@]31CCN(C)C2 [galantamine],apoptosis induced by beta-amyloid and thapsigargin,neuroblastoma cell lines,inhibit apoptosis induced by beta-amyloid and thapsigargin in a concentration dependent manner
COc1cc2c(cc1OC)C(=O)C(CC1CCN(Cc3ccccc3)CC1)C2 (stereo not shown) [donepazil],"cognitive effect, blinded placebo controlled study",[1],no effect
same,"cognitive effect, open label studies",[1],modest cognitive improvements
O=C(NCCN1CCOCC1)c1ccc(Cl)cc1 [moclobemide],efficacy for smoking cessation,[2],demonstrated efficacy
